Source: US5646283A, “Tetracyclic compound” (Kyowa Hakko Kogyo Co., Ltd., priority 1993, dated 1997)

What was measured:
spleen cells [1] = experiment: Plaque Forming Cell Assay (inhibition rate of the antibody production); assay type: cell-based, Balb/c strain mice; conditions: Mus musculus, read-out: Inhibition rate (antibody production, PFC); for inhibition at 10 µM: Concentration 10^-5 M; for inhibition at 0.1 µM: Concentration 10^-7 M; for inhibition at 0.01 µM: Concentration 10^-8 M
spleen cells [2] = experiment: as above; assay type: cell-based, Balb/c strain mice; conditions: Mus musculus; Concentration 10^-6 M; read-out: Inhibition rate (antibody production, PFC)
Experimental: Plaque Forming Cell Assay
The plaque forming cell assay was carried out by the following manner with reference to the method of Jerne et al. [Science, 140, 405 (1963)] and the method of Yamamoto et al. [Drugs Experimental Clinical Research, III(1), 5 (1982)].
Male Balb/c strain mice (7-week-old) (Charles River Co.) were sensitized with 1×10^8 sheep erythrocytes (product of Biotest Research Institute) administered via the caudal vein, and the spleens were extirpated 6 or 7 days after the sensitization. The extirpated spleens were immersed in Hanks' solution (Nissui Seiyaku) to make a cell suspension, which was then filtered, followed by centrifugal separation at 1200 rpm for 5 minutes. After centrifugal separation, the supernatant was discarded and the precipitate was treated with Tris.NH4 Cl solution to remove the erythrocytes, and then washed three times with Hanks' solution. After discarding the supernatant, the cells were suspended in an RPMI-1640 medium (Nissui Seiyaku) containing 10% bovine fetal serum (Gibco Co.), 50 μg/ml of streptomycin (Meiji Seika), […] of penicillin (Meiji Seika) and 2-mercaptoethanol (5×10^-5 M). In each well of a micro culture plate (NUNK Co., Ltd., 24 wells) were put 2 ml of the mixture of the cell suspension containing 1×10^7 of spleen cells, 5×10^6 sheep erythrocites and a test compound solution (10^-6 M) obtained by diluting the test compound dissolved in dimethylsulfoxide (10^-2 M) with the above mentioned RPMI-1640, and the cells were cultured at 37° C. for 5 days.
After the completion of the culturing, the cells were subjected to centrifugal separation at 2000 rpm for 5 minutes, and the resulting supernatant was removed. The precipitate was suspended in 1 ml of Hanks' solution, again subjected to centrifugal separation, suspended in 1 ml of Hanks' solution, and then, 50 μl of the suspension and 50 μl of sheep erythrocytes were added to 400 μl of 0.25% agarose/Hanks' solution heated to 50° C. in advance, and the mixture was scattered on a glass slide, placed on a plaque assay plate, and together with guinea pig complement (Cedarlene Institute) diluted 40-fold with a phosphate buffer solution, incubated at 37° C. for 1 to 2 hours. The number of the appearing direct plaque cells (direct PFC count) in suspension was counted.
The inhibition rate of the antibody production of the test compound was determined by the following equation. [formula]
The compound used for comparison was 5,6-dihydro-9-fluoro-3-phenylbenz[c]acridine-7-carboxylic acid [Japanese Published Unexamined Patent Application No. 233661/90, hereinafter referred to as Compound (A)] represented by formula (A). [drawing 62]
PFC count in Control means PFC count in the absence of the test compound (dimethylsulfoxide alone).

dd mice = experiment: Acute toxicity; assay type: in vivo; conditions: mortality after 7 days
Experimental: The test compound was administered to dd mice having a weight of 20 to 25 g per os (p.o.) and intraperitoneally (i.p.). MLD (minimum lethal dose) was evaluated by measuring the mortality after 7 days from the day of administration.

**Q.** For `O=C(O)c1c2c(nc3ccc(F)cc13)-c1ccc(-c3ccc(F)cc3)cc1CC2` [Compound 1, 5,6-Dihydro-9-fluoro-3-(4-fluorophenyl)benz[c]acridine-7-carboxylic acid], which inhibition at 10 µM (spleen cells [1]) is on record?
**A.** 98.1%

**Q.** What about the inhibition at 0.1 µM (spleen cells [1]) of the same compound?
**A.** 69.2%

**Q.** And the inhibition at 1 µM (spleen cells [2])?
**A.** 93.5%

**Q.** How did the inhibition at 10 µM (spleen cells [1]) turn out when `O=C(O)c1c2c(nc3ccc(F)cc13)-c1ccc(-c3ccc(F)cc3F)cc1CC2` [Compound 2, 3-(2,4-Difluorophenyl)-5,6-dihydro-9-fluorobenz [c]acridine-7-carboxylic acid] was run?
**A.** 98%

**Q.** What about the inhibition at 0.1 µM (spleen cells [1]) of the same compound?
**A.** 86.7%

**Q.** And the inhibition at 1 µM (spleen cells [2])?
**A.** 96.3%

**Q.** How did the inhibition at 10 µM (spleen cells [1]) turn out when `O=C(O)c1c2c(nc3ccc(F)cc13)-c1ccc(-c3c(F)cccc3F)cc1CC2` [Compound 3, 3-(2,6-Difluorophenyl)-5,6-dihydro-9-fluorobenz[c]acridine-7-carboxylic acid] was run?
**A.** 99.7%

**Q.** And the inhibition at 0.1 µM (spleen cells [1])?
**A.** 68.9%

**Q.** What about the “MLD (minimum lethal dose)” value (dd mice; i.p.) of the same compound?
**A.** > 100

**Q.** And the “MLD (minimum lethal dose)” value (dd mice; p.o.)?
**A.** > 300

**Q.** What about the inhibition at 1 µM (spleen cells [2]) of the same compound?
**A.** 99.4%

**Q.** What does the source list for `O=C(O)c1c2c(nc3ccc(F)cc13)-c1ccc(-c3cccs3)cc1CC2` [Compound 4, 5,6-Dihydro-9-fluoro-3-(2-thienyl)benz[c]acridine-7-carboxylic acid]?
**A.** inhibition at 10 µM (spleen cells [1]): 99.8%; inhibition at 0.1 µM (spleen cells [1]): 88.4%; MLD (minimum lethal dose) (dd mice; i.p.): > 100; MLD (minimum lethal dose) (dd mice; p.o.): > 300; inhibition at 1 µM (spleen cells [2]): 99.2%

**Q.** For `O=C(O)c1c2c(nc3ccc(F)cc13)-c1cc(F)c(-c3ccccc3F)cc1CCC2` [Compound 13, 2,10-Difluoro-6,7-dihydro-3-(2-fluorophenyl)-5H-benzo[6,7]cyclohepta[1,2-b]quinoline-8-carboxylic acid], which inhibition at 10 µM (spleen cells [1]) is on record?
**A.** 95.2%

**Q.** What about the inhibition at 0.1 µM (spleen cells [1]) of the same compound?
**A.** 82.4%

**Q.** And the inhibition at 1 µM (spleen cells [2])?
**A.** 95.7%

**Q.** What does the source list for `O=C(O)c1c2c(nc3ccc(F)cc13)-c1cc(F)c(-c3ccccc3)cc1CC2` [Compound 16, 2,9-Difluoro-5,6-dihydro-3-phenylbenz[c]acridine-7-carboxylic acid]?
**A.** inhibition at 0.1 µM (spleen cells [1]): 88.5%; inhibition at 0.01 µM (spleen cells [1]): 56.8%; inhibition at 1 µM (spleen cells [2]): 94.1%

**Q.** `O=C(O)c1c2c(nc3ccc(F)cc13)-c1cc(F)c(-c3ccccc3F)cc1CC2` [Compound 17, 2,9-Difluoro-5,6-dihydro-3-(2-fluorophenyl)benz[c]acridine-7-carboxylic acid] was tested. Which inhibition at 0.1 µM (spleen cells [1]) did it give?
**A.** 82.5%

**Q.** What about the inhibition at 0.01 µM (spleen cells [1]) of the same compound?
**A.** 59.8%

**Q.** And the inhibition at 1 µM (spleen cells [2])?
**A.** 91%

**Q.** What does the source list for `O=C(O)c1c2c(nc3ccc(F)cc13)-c1cc(F)c(-c3ccccc3)cc1CCC2` [Compound 28, 2,10-Difluoro-6,7-dihydro-3-phenyl-5H-benzo[6,7]cyclohepta[1,2-b]quinoline-8-carboxylic acid]?
**A.** inhibition at 0.1 µM (spleen cells [1]): 90.1%; inhibition at 0.01 µM (spleen cells [1]): 73.6%; MLD (minimum lethal dose) (dd mice; i.p.): > 100; MLD (minimum lethal dose) (dd mice; p.o.): > 100; inhibition at 1 µM (spleen cells [2]): 93.6%

**Q.** Which results are given for `O=C(O)c1c2c(nc3ccc(F)cc13)-c1ccc(-c3ccccc3)cc1CCC2` [Compound 46, 6,7-Dihydro-10-fluoro-3-phenyl-5H-benzo[6,7]cyclohepta[1,2-b]quinoline-8-carboxylic acid]?
**A.** inhibition at 10 µM (spleen cells [1]): 94.9%; inhibition at 0.1 µM (spleen cells [1]): 81.4%; inhibition at 1 µM (spleen cells [2]): 84.8%

**Q.** What does the source list for `O=C(O)c1c2c(nc3ccc(F)cc13)-c1ccc(-c3ccccc3)cc1CC2` [Compound A1, 5,6-dihydro-9-fluoro-3-phenylbenz[c]acridine-7-carboxylic acid, reference compound]?
**A.** inhibition at 10 µM (spleen cells [1]): 78.6%; inhibition at 1 µM (spleen cells [2]): 45.9%
